According to the NIST ThermoML archive (doi:10.1021/acs.jced.5b00367):

Assay: wn = mass fraction of the nth substance listed
Settings: 101 kPa, Liquid, Alternating current cell with electrodes, w1 = 0.01

CCCCCCCCCCCCCCCC[N+](CC)(CC)CCCCCCCCCCCCCCCC.[Br-] [diethyldihexadecylammonium bromide] + O
Settings	electrical conductivity [S/m]
279.15 K	0.0018
279.25 K	0.00186
279.45 K	0.00186
279.55 K	0.00187
279.65 K	0.00187
279.85 K	0.00188
280.15 K	0.00189
280.35 K	0.00189
280.55 K	0.0019
280.65 K	0.0019
281.05 K	0.0019
281.15 K	0.00191
281.55 K	0.00191
281.85 K	0.00192
282.05 K	0.00192
282.25 K	0.00193
282.75 K	0.00194
283.05 K	0.00195
283.15 K	0.00195
283.45 K	0.00195
283.65 K	0.00195
283.85 K	0.00195
283.95 K	0.00195
284.15 K	0.00195
284.55 K	0.00197
284.75 K	0.00197
285.25 K	0.00197
285.45 K	0.00198
285.55 K	0.00198
285.75 K	0.00198
285.85 K	0.00198
286.15 K	0.00198
286.25 K	0.00198
286.55 K	0.00198
286.65 K	0.00198
289.15 K	0.002
290.15 K	0.00201
290.85 K	0.00202
291.45 K	0.00204
291.75 K	0.00205
292.05 K	0.00206
292.95 K	0.00207
295.55 K	0.00209
296.65 K	0.0021
297.65 K	0.00211
298.65 K	0.00212
299.45 K	0.00213
300.75 K	0.00214
301.25 K	0.00215
302.35 K	0.00216
303.05 K	0.00217
303.65 K	0.00219
304.05 K	0.0022
305.25 K	0.00226
305.55 K	0.00229
305.95 K	0.00235
306.45 K	0.00239
306.95 K	0.00247
307.35 K	0.00254
307.65 K	0.00264
307.95 K	0.0027
308.15 K	0.00278
308.45 K	0.00294
308.75 K	0.00294
308.95 K	0.00295
309.55 K	0.00296
310.25 K	0.00297
311.35 K	0.00299
312.45 K	0.00304
312.65 K	0.00305
313.55 K	0.00305
313.95 K	0.00308
314.15 K	0.00314
316.55 K	0.00319
317.25 K	0.00323
318.65 K	0.00322
318.75 K	0.00325
319.15 K	0.00326
320.75 K	0.00328
320.95 K	0.00331
321.05 K	0.00333
322.05 K	0.0034
322.15 K	0.0034
323.15 K	0.00347
